The values that follow are results of earlier work, collected in article PMC5050400 (Current Neuropharmacology, 2016).

For series [1], the system named is β3(Y143W) receptor. Conditions: β3(Y143W) homomeric receptor compared with wild-type; cited from earlier work.
Series [2] relates to α1β2γ2L GABAA receptors. The conditions noted are these: compared with propofol; cited from earlier work.

Molecules are shown by their SMILES.

Consider `Cc1cccc(C)c1O` [2,6-dimethylphenol], for which the “activation of the mutant receptor” value in series [1] is “unchanged”.

With `CC(C)c1ccccc1O` [2-isopropylphenol], the “activation of the mutant receptor” value in series [1] is “unchanged”.

For the compound `CC(C)c1ccc(C2(C(F)(F)F)N=N2)cc1O` [meta-azipropofol, 2-isopropyl-5-[3-(trifluoromethyl)-3H-diazirin-3-yl]phenol], the degree of potentiation result in series [2] is “somewhat smaller degree of potentiation”.
